The record followed here is patent publication US20230121952A1 (INFLAZOME LIMITED, priority 2020, published 2023).

For test [1], the target named is T1, NLRP3 (Homo sapiens, UniProt Q96P20). Kind of test: THP-1 cells pyroptosis assay. Format: cell-based. Details: Seed THP-1 cells (25,000 cells/well) containing 1.0 μg/ml LPS; host or cells: THP-1 cells, LPS-primed, nigericin-stimulated. The settings on record: 1.0 μg/ml LPS, compound 3 hrs, nigericin 5 μM 1 hr, resazurin readout. The procedure:
THP-1 cells (ATCC #TIB-202) were grown in RPMI containing L-glutamine (Gibco #11835) supplemented with 1 mM sodium pyruvate (Sigma #S8636) and penicillin (100 units/ml)/streptomycin (0.1 mg/ml) (Sigma #P4333) in 10% Fetal Bovine Serum (FBS) (Sigma #F0804). The cells were routinely passaged and grown to confluency (˜10^6 cells/ml). On the day of the experiment, THP-1 cells were harvested and resuspended into RPMI medium (without FBS). The cells were then counted and viability (>90%) checked by Trypan blue (Sigma #T8154). Appropriate dilutions were made to give a concentration of 625,000 cells/ml. To this diluted cell solution was added LPS (Sigma #L4524) to give a […] Final Assay Concentration (FAC). 40 μl of the final preparation was aliquoted into each well of a 96-well plate. The plate thus prepared was used for compound screening.
The following method step-by-step assay was followed for compound screening. • 1. Seed THP-1 cells (25,000 cells/well) containing 1.0 μg/ml LPS in 40 μl of RPMI medium (without FBS) in 96-well, black walled, clear bottom cell culture plates coated with poly-D-lysine (VWR #734-0317) • 2. Add 5 μl compound (8 points half-log dilution, with 10 μM top dose) or vehicle (DMSO 0.1% FAC) to the appropriate wells • 3. Incubate for 3 hrs at 37° C., 5% CO2 • 4. Add 5 μl nigericin (Sigma #N7143) (FAC 5 μM) to all wells • 5. Incubate for 1 hr at 37° C., 5% CO2 • 6. At the end of the incubation period, spin plates at 300×g for 3 mins and remove supernatant • 7. Then add 50 μl of resazurin (Sigma #R7017) (FAC 100 μM resazurin in RPMI medium without FBS) and incubate plates for a further 1-2 hrs at 37° C. and 5% CO2 • 8. Plates were read in an Envision reader at Ex 560 nm and Em 590 nm • 9. IC50 data is fitted to a non-linear regression equation (log inhibitor vs response-variable slope 4-parameters) 96-well Plate Map

The target of test [2] is T1, NLRP3. Kind of test: Human whole blood IL-1β release assay. Format: cell-based. Further details: Human whole blood in Li-heparin tubes was obtained from healthy donors; from tissue; host or cells: human whole blood from healthy volunteer donors, LPS-primed, nigericin-stimulated. Conditions: 1 μg/ml LPS, compound 3 hrs, nigericin 10 μM 1 hr, IL-1β in supernatant (AlphaLisa), read-out: HWB IC50. As for the experimental part: For systemic delivery, the ability to inhibit NLRP3 when the compounds are present within the bloodstream is of great importance. For this reason, the NLRP3 inhibitory activity of a number of compounds in human whole blood was investigated in accordance with the following protocol.
Human whole blood in Li-heparin tubes was obtained from healthy donors from a volunteer donor panel. • 1. Plate out 80 μl of whole blood containing 1 μg/ml of LPS in 96-well, clear bottom cell culture plate (Corning #3585) • 2. Add 10 μl compound (8 points half-log dilution with 10 μM top dose) or vehicle (DMSO 0.1% FAC) to the appropriate wells • 3. Incubate for 3 hrs at 37° C., 5% CO2 • 4. Add 10 μl nigericin (Sigma #N7143) (10 μM FAC) to all wells • 5. Incubate for 1 hr at 37° C., 5% CO2 • 6. At the end of the incubation period, spin plates at 300×g for 5 mins to pellet cells and remove 20 μl of supernatant and add to 96-well v-bottom plates for IL-1β analysis (note: these plates containing the supernatants can be stored at −80° C. to be analysed at a later date) • 7. IL-1β was measured according to the manufacturer protocol (Perkin Elmer-AlphaLisa IL-1 Kit AL220F-5000) • 8. IC50 data is fitted to a non-linear regression equation (log inhibitor vs response-variable slope 4-parameters)

SMILES strings stand for the structures.

T1 sequence (Q96P20 whole entry): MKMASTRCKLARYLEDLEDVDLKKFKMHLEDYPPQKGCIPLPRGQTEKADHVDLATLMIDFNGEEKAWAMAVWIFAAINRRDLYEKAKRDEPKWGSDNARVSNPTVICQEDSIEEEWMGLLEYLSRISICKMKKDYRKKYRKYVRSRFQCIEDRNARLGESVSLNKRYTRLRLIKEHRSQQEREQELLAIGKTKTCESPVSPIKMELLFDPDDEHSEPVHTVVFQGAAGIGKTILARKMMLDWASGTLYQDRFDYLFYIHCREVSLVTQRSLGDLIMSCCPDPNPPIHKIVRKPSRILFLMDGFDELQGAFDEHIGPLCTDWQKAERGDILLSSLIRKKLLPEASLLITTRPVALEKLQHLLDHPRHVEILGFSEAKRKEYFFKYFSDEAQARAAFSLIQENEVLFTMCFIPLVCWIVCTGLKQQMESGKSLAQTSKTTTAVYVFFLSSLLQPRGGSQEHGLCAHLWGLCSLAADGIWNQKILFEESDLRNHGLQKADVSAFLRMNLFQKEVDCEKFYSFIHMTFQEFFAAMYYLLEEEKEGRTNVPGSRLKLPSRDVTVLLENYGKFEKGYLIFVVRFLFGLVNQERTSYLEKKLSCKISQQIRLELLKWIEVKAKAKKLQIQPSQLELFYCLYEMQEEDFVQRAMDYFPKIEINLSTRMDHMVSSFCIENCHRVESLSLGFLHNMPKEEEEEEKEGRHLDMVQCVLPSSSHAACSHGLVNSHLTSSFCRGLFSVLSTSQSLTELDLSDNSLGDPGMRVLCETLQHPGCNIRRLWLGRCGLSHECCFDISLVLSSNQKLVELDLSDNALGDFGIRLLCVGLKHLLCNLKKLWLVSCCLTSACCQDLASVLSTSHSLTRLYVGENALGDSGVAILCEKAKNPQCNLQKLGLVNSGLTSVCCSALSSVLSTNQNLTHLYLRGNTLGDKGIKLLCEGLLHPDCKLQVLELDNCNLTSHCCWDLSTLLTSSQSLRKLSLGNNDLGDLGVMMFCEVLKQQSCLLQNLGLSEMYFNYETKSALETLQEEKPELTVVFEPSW

With `O=S1(=O)c2nnc([nH]2)Nc2c(ccc3c2CCC3)-c2ccnc(c2)OCCN2CCC3(C2)CN1C3` [Example 3, 25-oxa-16λ^6-thia-11,13,14,17,22,27,33-heptazaheptacyclo-[24.3.1.1^12,15.1^17,19.1^19,22.0^2,10.0^5,9]tritriaconta-1(29),2,4,9,12,14,26(30),27-octaene 16,16-dioxide], the IC50 against NLRP3 [1] was no more than 100 nM; at NLRP3 [2], no more than 500 nM.

As for `CC1(C)COc2cc(ccn2)-c2ccc3c(c2Nc2nnc([nH]2)S(=O)(=O)N2CC4(CCN1C4)C2)CCC3` [Example 10, 23,23-dimethyl-25-oxa-16λ^6-thia-11,13,14,17,22,27,33-heptaazaheptacyclo[24.3.1.1^12,15.1^17,19.1^19,22.0^2,10.0^5,9]tritriaconta-1(29),2,4,9,12,14,26(30),27-octaene-16,16-dioxide], the 50% inhibitory concentration (IC50) on NLRP3 [1] is no more than 100 nM; at NLRP3 [2], no more than 500 nM.

Take `O=S1(=O)c2nnc([nH]2)Nc2c(ccc3c2CCC3)-c2ccnc(c2)OCCN2CCCC23CCN1CC3` [Example 5, 8-oxa-28λ^6-thia-5,10,23,25,26,29,34-heptazaheptacyclo-[27.2.2.1^9,13.1^24,27.0^1,5.0^14,22.0^17,21]pentatriaconta-9(35),10,12,14,16,21,24,26-octaene 28,28-dioxide]: the IC50 at NLRP3 [1] and at NLRP3 [2] was no more than 500 nM throughout.

On to `CC1(C)COc2cc(ccn2)-c2ccc3c(c2Nc2nnc([nH]2)S(=O)(=O)c2cccc1c2)CCC3` [Example 8, 22,22-dimethyl-24-oxa-16 λ^6-thia-11,13,14,26,31-pentazahexacyclo-[23.3.1.1^12,15.1^17,21.0^2,10.0^5,9] hentriaconta-1(28),2,4,9,12,14,17,19,21(30),25(29),26-undecaene 16,16-dioxide], for which the values for the IC50 against NLRP3 [1] and on NLRP3 [2] were no more than 5000 nM and no more than 10000 nM, respectively.

Take `O=S1(=O)c2nnc([nH]2)Nc2c(ccc3c2CCC3)-c2ccnc(c2)OCCCN2CCC3(C2)CN1C3` [Example 2, 26-oxa-16λ^6-thia-11,13,14,17,22,28,34-heptazaheptacyclo-[25.3.1.1^12,15.1^17,19.1^19,22.0^2,10.0^5,9]tetratriaconta-1(30),2,4,9,12,14,27(31),28-octaene 16,16-dioxide]: the IC50 at NLRP3 [1] and at NLRP3 [2] was no more than 100 nM in each case.

Take `Cc1cc2c(c3c1-c1ccnc(c1)OCCCN1CCC4(C1)CN(C4)S(=O)(=O)c1nnc([nH]1)N3)CCC2` [Example 4, 3-methyl-26-oxa-16λ^6-thia-11,13,14,17,22,28,34-heptazaheptacyclo-[25.3.1.1^12,15.1^17,19.1^19,22.0^2,10.0^5,9]tetratriaconta-1(30),2,4,9,12,14,27(31),28-octaene 16,16-dioxide]: the IC50 against NLRP3 [1] is no more than 100 nM; on NLRP3 [2] it was no more than 500 nM.

In the case of `CN1CCOc2cc(ccn2)-c2ccc3c(c2Nc2nnc([nH]2)S(=O)(=O)N2CC[C@@H](C1)C2)CCC3` [Example 12, (20S)-22-methyl-25-oxa-16λ^6-thia-11,13,14,17,22,27,32-heptaazahexacyclo[24.3.1.1^12,15.1^17,20.0^2,10.0^5,9]dotriaconta-1(29),2,4,9,12,14,26(30),27-octaene-16,16-dioxide], the IC50 at NLRP3 [1] and at NLRP3 [2] was no more than 500 nM in each case.
